{"source": "patent US20230141284A1", "about": "“CANCER THERAPEUTIC METHOD” (ONO PHARMACEUTICAL CO., LTD., priority 2020, published 2023)", "key": {"[1]": {"test_system": "IRF pathway", "assay": "Verification of STING agonistic activity (IRF pathway in cells of PCT/EP2017/59781)", "assay_type": "cell-based", "settings": "cells described in PCT/EP2017/59781, about 24 hours incubation", "experimental": "The cells described at lines 37-39 on page 18 in the publication of PCT application with application number PCT/EP2017/59781 were suspended in RPMI medium to prepare 2×10^6 cells/mL cell suspension. 50 μL of cell suspensions were dispensed into a 96-well plate, to which 50 μL of 6 to 20,000 nM compound solutions were further added, followed by incubation at 37° C. for about 24 hours. 10 μL of the cell suspensions were collected from each well, which were mixed with 50 μL of Quanti-luc (Invivogen), and then the activity of the IRF pathway was measured by detecting luminescence using a microplate reader."}, "[2]": {"test_system": "BTK, KDR, each subtype of PKCa to t, each CDK of CDK2 to 9, FAK, TIE2, RAF1 and BRAF", "assay": "Inhibitory activity against various kinases (mobility shift, LabChip)", "assay_type": "biochemical", "settings": "4 μmol/L test substance solution (4 times the final concentration)", "experimental": "4 μmol/L of the test substance solution (the compound pertaining to the present invention produced in Example 1) (at 4 times the final concentration) was prepared by dissolving it to the assay buffer (20 mmol/L HEPES, 0.01% Triton X-100, 1 mmol/L DTT, pH 7.5). 4 μmol/L of the substrate/ATP/metal solution (at 4 times the final concentration) was prepared by dissolving it to the kit buffer (20 mmol/L HEPES, 0.01% Triton X-100, 5 mmol/L DTT, pH 7.5). Various kinase solutions at twice the final concentration were prepared by dissolving them to the assay buffer. 5 μL of the test substance solution, 5 μL of the substrate/ATP/metal solution and 10 μL of the kinase solution were mixed in wells of a polypropylene 384-well plate, and the mixture thereof was reacted at room temperature for 1 to 5 hours. The reaction was stopped by adding 70 μL of the termination buffer (QuickScout Screening Assist MSA; Carna Biosciences). The substrate peptide and phosphorylated peptide in the reaction solution were separated and quantified by LabChip system (Perkin Elmer). The kinase reaction was evaluated based on the product ratio (P/(P+S)) calculated from the peak height (S) of the substrate peptide and the peak height (P) of the phosphorylated peptide. The various kinases used in this evaluation are as follows: BTK, KDR, each subtype of PKCa to t, each CDK of CDK2 to 9, FAK, TIE2, RAF1 and BRAF."}, "[3]": {"molecular_target": "T1, IDO1 (Homo sapiens, UniProt P14902)", "T1 construct": "His-tag; purchased BPS Bioscience", "T1 sequence (P14902 whole entry)": "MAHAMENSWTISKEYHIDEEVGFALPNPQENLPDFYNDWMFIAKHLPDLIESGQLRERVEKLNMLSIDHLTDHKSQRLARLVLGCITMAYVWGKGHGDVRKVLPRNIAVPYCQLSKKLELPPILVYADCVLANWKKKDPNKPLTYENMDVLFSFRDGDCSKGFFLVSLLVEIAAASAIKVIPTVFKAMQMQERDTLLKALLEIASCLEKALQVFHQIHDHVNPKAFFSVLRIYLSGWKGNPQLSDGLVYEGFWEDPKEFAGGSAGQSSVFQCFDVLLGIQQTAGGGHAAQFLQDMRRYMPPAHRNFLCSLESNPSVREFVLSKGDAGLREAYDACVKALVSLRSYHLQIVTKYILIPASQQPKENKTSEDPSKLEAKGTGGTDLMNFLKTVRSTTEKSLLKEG", "assay": "IDO1 inhibitory activity (IDO1 Fluorogenic Inhibitor Screening Assay Kit)", "assay_type": "biochemical", "settings": "compound solutions of 0.6 to 200 μmol/L added", "experimental": "The evaluation of IDO1 inhibitory activity was carried out using the IDO1 Fluorogenic Inhibitor Screening Assay Kit (BPS Bioscience). Specifically, IDO1 Fluorogenic Reaction Solution was dissolved, of which 180 μL were added to each well. Then, 10 μL of the compounds at the respective concentrations of 0.6, 2, 6, 20, 60 and 200 μmol/L were added thereto. Further, after adding 10 μL of IDO1 His-Tag solution thereto, and the mixture thereof was incubated at room temperature for 1 hour, and then 20 μL of Fluorescence Solution was added thereto, and the mixture thereof was incubated at 37° C. for 4 hours. After standing them at room temperature for 10 minutes, the fluorescence was measured using a microplate reader (excitation: 400 nm, emission: 510 nm)."}, "[4]": {"test_system": "colon cancer cell line MC38", "assay": "Anti-tumor effect in subcutaneously colon cancer cell line MC38 tumor-bearing mouse model (Example 17)", "assay_type": "in vivo, mice (C57/BL6)", "settings": "3 mg/kg, administered 7 days after transplantation, measured until Day 26", "experimental": "Seven days after transplantation, the subcutaneously MC38 tumor-bearing mice were grouped based on tumor volume, and the Vehicle group (n=8) and group to which the compound shown in Example 1 (3 mg/kg, n=6) was administered were set. The changes in tumor volume were continuously measured until 26 days after transplantation (Day 26). The tumor volume was calculated by the following formula:\n[Tumor volume (mm^3)]=[major axis (mm)]×[minor axis (mm)]^2×0.5"}, "[5]": {"test_system": "human acute myeloid leukemia cell line MV4-11", "assay": "Anti-tumor effect in subcutaneously tumor model bearing human acute myeloid leukemia cell line MV4-11", "assay_type": "in vivo", "settings": "dosages of 1.0 mg/kg and 3.0 mg/kg; immunodeficient mice; until Day 28", "experimental": "They were grouped based on tumor volume 6 days after transplantation, and Compound A (0.3, 1.0, and 3.0 mg/kg, respectively; n=8) and Vehicle (n=8) were administered to the subcutaneously tumor-bearing mice, respectively."}, "[6]": {"test_system": "melanoma cell line B16F10", "assay": "Combination experiments in subcutaneously melanoma cell line B16F10 tumor-bearing mice model (Example 23)", "assay_type": "in vivo, mice (C57/BL6)", "settings": "until Day 30", "experimental": "• Vehicle and control antibody (rIgG1) (n=8 or 6), • Compound A (0.3 mg/kg) and control antibody (rIgG1) (n=6), • Anti-PD-1 antibody 4H2 (10 mg/kg (but 20 mg/kg only in the first dose only); n=6), and • Compound A (0.3 mg/kg) and anti-PD-1 antibody 4H2 (10 mg/kg (but 20 mg/kg only for the first dosage)) (n=6).\nIn the Combination Experiment 1, Compound A was administered once 10 days after transplantation while the anti-PD-1 antibody 4H2 and control antibody were administered 4 times every 6 days since 10 days after transplantation, respectively.\n• Vehicle and control antibody (rIgG1) (n=8 or 6), • Compound A (0.3 mg/kg) and control antibody (rIgG1) (n=6), • Anti-VEGFR2 antibody DC101 (BioXCell) (10 mg/kg; n=6), and • Compound A (0.3 mg/kg) and anti-VEGFR2 antibody DC101 (10 mg/kg) (n=6).\nIn the Combination Experiment 2, Compound A was administered 4 times every 7 days since 10 days after transplantation while anti-VEGFR2 antibody DC101 and control antibody were administered 7 times every 3 or 4 days once 10 days after transplantation, respectively.\nVehicle and Compound A were administered intravenously while control antibody, anti-PD-1 antibody, and anti-VEGFR2 antibody were administered intraperitoneally, respectively.\nFIGS. 9 and 10 show results thereof."}, "[7]": {"test_system": "colon cancer cell line MC38", "assay": "Compound A and anti-PD-1 antibody 4H2 in MC38 tumor-bearing mouse model (Example 21)", "assay_type": "in vivo, mice (C57/BL6)", "experimental": "Compound A was administered intravenously once 8 days after transplantation, and the anti-PD-1 antibody 4H2 was administered intraperitoneally 4 times every 6 days since 8 days after transplantation. • Vehicle (n=9), • Compound A (0.1 mg/kg; n=9), • Anti-PD-1 antibody 4H2 (10 mg/kg (but 20 mg/kg only in the first dosage); n=9), and • Compound A (0.1 mg/kg) and anti-PD-1 antibody 4H2 (10 mg/kg (but 20 mg/kg only in the first dosage); n=9).\nFIGS. 6 and 7 show results thereof."}, "[8]": {"assay": "Conversion of a prodrug to its active body (Compound B) in human plasma", "assay_type": "in vitro ADME", "settings": "1 μmol/L, 37° C., 60 minutes", "experimental": "(§1) The solutions of the example compounds in Table 2 below (50 μmol/L, 50% acetonitrile with 5% DMSO) were added to plasma (245 μL), respectively, such that the final concentrations thereof become 1 μmol/L. After keeping them the temperature at 37° C. for 60 minutes, 40 μL of the reaction solutions were taken therefrom, and added to 200 μL of acetonitrile/ethanol (7:3) containing Candesartan (internal standard).\n(§2) The concentration of the compound prepared in Example 3 (Compound B) in the plasma resulting from the above reaction was analyzed by LC-MS/MS according to the following method.\n(§3) The whole amount was transferred to a filter plate for protein removal and filtered by suction, and the filtrate thereof was diluted 2-fold with water. [LC column] Shim-pack XR-ODSII 2.0 mm ID×75 mm (Shimadzu Corporation) [LC condition] Column temperature: 40° C. Mobile phase: A: 0.2% formic acid in 5 mM ammonium acetate solution; and\n(§4) [MS conditions] Electrospray, positive mode, multiple reaction monitoring; MS monitor ion: Compound B: m/z353.0→m/z311.2, DP: 80, CE: 35; and Candesartan (internal standard): m/z309.1→m/z163.0, DP: 71, CE: 21.\n(§5) A regression formula was calculated from the peak area ratio (peak area of Compound B/peak area of Candesartan) of the real sample and the standard sample for the calibration curve in the same matrix, and the peak area ratio of the real sample was substituted into the regression formula to calculate the quantitative value. 60 minutes later, the concentration of Compound B in the sample was compared, and the conversion rate (%) thereof was calculated using the following formula:\n(§6) Conversion rate (%)=Concentration of Compound B in the sample after 60 minutes (μmol/L)×100"}, "[9]": {"assay": "Conversion of a prodrug to its active body (Compound B) in mouse plasma", "assay_type": "in vitro ADME", "settings": "1 μmol/L, 37° C., 60 minutes", "experimental": "as §1, §2, §3, §4, §5, §6"}}}
{"smiles": "COC(=O)c1cc(-c2ncc(-c3cn[nH]c3)c3onc(N)c23)c(F)cc1N", "note": "[Example 1, methyl 2-amino-5-(3-amino-7-(1H-pyrazol-4-yl)isoxazolo[4,5-c]pyridin-4-yl)-4-fluorobenzoate]", "values": [{"measurement": "IRF activating effect", "setting": "[1]", "value": "no IRF activating effect"}, {"measurement": "inhibitory activity against various kinases", "setting": "[2]", "value": "no significantly inhibit activities"}, {"measurement": "IDO1 inhibitory activity", "setting": "[3]", "value": "no IDO1 inhibitory activity"}, {"measurement": "tumor growth (tumor volume)", "setting": "[4]", "value": "almost completely suppressed the tumor growth"}]}
{"smiles": "CC(=O)c1cc(-c2ncc(-c3cnn(COP(=O)(O)O)c3)c3onc(N)c23)c(F)cc1N", "note": "[Example 10(1), (4-(4-(5-acetyl-4-amino-2-fluorophenyl)-3-aminoisoxazolo[4,5-c]pyridin-7-yl)-1H-pyrazol-1-yl)methyl dihydrogen phosphate]", "values": [{"measurement": "tumor growth (tumor volume)", "setting": "[5]", "value": "suppressed tumor growth"}, {"measurement": "anti-tumor effect of anti-VEGFR2 antibody", "setting": "[6]; Compound A 0.3 mg/kg 4 times every 7 days combined with anti-VEGFR2 antibody DC101 10 mg/kg", "value": "enhanced"}, {"measurement": "anti-tumor effect of anti-PD-1 antibody", "setting": "[6]; Compound A 0.3 mg/kg once combined with anti-PD-1 antibody 4H2 10 mg/kg (20 mg/kg first dosage)", "value": "enhanced"}, {"measurement": "tumor-reducing effect", "setting": "[7]; Compound A 0.1 mg/kg combined with anti-PD-1 antibody 4H2, 28 days after transplantation", "value": "showed the tumor-reducing effect"}, {"measurement": "anti-tumor effect observed with anti-PD-1 antibody alone", "setting": "[7]; Compound A 0.1 mg/kg i.v. once combined with anti-PD-1 antibody 4H2 10 mg/kg (20 mg/kg first dosage)", "value": "enhanced"}, {"measurement": "number with complete tumor remission", "setting": "[7]; combination of Compound A (0.1 mg/kg) and the anti-PD-1 antibody", "value": "5 out of 9"}, {"measurement": "Plasma conversion rate Human", "setting": "[8]", "value": "+ + +"}, {"measurement": "Plasma conversion rate Mouse", "setting": "[9]", "value": "+ + +"}]}
